This data set has as its target PRNP. The experiment in a line: mouse, dose not given. The settings on record: ASO.

HELM strings list units from the 5' end as sugar, base in round brackets, then linkage (d deoxyribose, r ribose, m 2'-O-methyl, p phosphodiester). Strings are as the collection lists them; they lack the last nucleoside at the 3' end of the tested compound. [moe] = 2'-O-(2-methoxyethyl) (MOE); [sp] = phosphorothioate linkage; [m5C] = 5-methylcytosine

“RNA1{[moe](T)[sp].[moe](T)p.[moe](T)p.[moe](G)p.[moe]([m5C])[sp].d(T)[sp].d(G)[sp].d(T)[sp].d(T)[sp].d(A)[sp].d(T)[sp].d(A)[sp].d([m5C])[sp].d(T)[sp].d(T)[sp].[moe](T)p.[moe](T)p.[moe](A)[sp].[moe]([m5C])}$$$$ (last 3' nucleoside missing)” displayed a 3 h FOB score of 1.25 score 0-7.

The substance “RNA1{[moe](T)[sp].[moe](T)p.[moe]([m5C])p.[moe](A)p.[moe](G)[sp].d(A)[sp].d(T)[sp].d(T)[sp].d(T)[sp].d(T)[sp].d(T)[sp].d([m5C])[sp].d(A)[sp].d([m5C])[sp].d(A)[sp].[moe](T)p.[moe](A)p.[moe](T)[sp].[moe](G)}$$$$ (last 3' nucleoside missing)” returned a 3 h FOB score of 1 score 0-7.

“RNA1{[moe](T)[sp].[moe](T)p.[moe]([m5C])p.[moe]([m5C])p.[moe](A)[sp].d(G)[sp].d([m5C])[sp].d(T)[sp].d(T)[sp].d([m5C])[sp].d(T)[sp].d(T)[sp].d(A)[sp].d(A)[sp].d(T)[sp].[moe](G)p.[moe]([m5C])p.[moe](A)[sp].[moe](T)}$$$$ (last 3' nucleoside missing)” showed a 3 h FOB score of 0 score 0-7.

As to “RNA1{[moe](T)[sp].[moe]([m5C])p.[moe](A)p.[moe](G)p.[moe](T)[sp].d(G)[sp].d(T)[sp].d(T)[sp].d(G)[sp].d(T)[sp].d(G)[sp].d(A)[sp].d([m5C])[sp].d(A)[sp].d(A)[sp].[moe](T)p.[moe](A)p.[moe](T)[sp].[moe](T)}$$$$ (last 3' nucleoside missing)”, the 3 h FOB score was found to be 4.25 score 0-7.

As to “RNA1{[moe](T)[sp].[moe]([m5C])p.[moe](A)p.[moe](G)p.[moe](T)[sp].d(T)[sp].d(T)[sp].d(T)[sp].d(T)[sp].d([m5C])[sp].d([m5C])[sp].d([m5C])[sp].d([m5C])[sp].[moe](A)p.[moe]([m5C])p.[moe](A)[sp].[moe](T)}$$$$ (last 3' nucleoside missing)”, the 3 h FOB score is 0 score 0-7.

Substance “RNA1{[moe](T)[sp].[moe]([m5C])p.[moe](A)p.[moe](G)p.[moe](T)p.d(T)[sp].d(T)[sp].d(T)[sp].d(T)[sp].d([m5C])[sp].d([m5C])[sp].d([m5C])[sp].d([m5C])[sp].d(A)[sp].[moe]([m5C])p.[moe](A)p.[moe](T)[sp].[moe](A)}$$$$ (last 3' nucleoside missing)” registered a 3 h FOB score of 0 score 0-7.

For the substance “RNA1{[moe](T)[sp].[moe]([m5C])p.[moe](A)p.[moe](T)p.[moe](A)[sp].d(T)[sp].d(T)[sp].d(T)[sp].d([m5C])[sp].d(T)[sp].d(G)[sp].d(T)[sp].d([m5C])[sp].d(A)[sp].d(T)[sp].[moe]([m5C])p.[moe](T)p.[moe]([m5C])[sp].[moe]([m5C])}$$$$ (last 3' nucleoside missing)”, the 3 h FOB score worked out at 3 score 0-7.

With “RNA1{[moe](T)[sp].[moe]([m5C])p.[moe](A)p.[moe](T)p.[moe](A)p.d(A)[sp].d(T)[sp].d(T)[sp].d(T)[sp].d(T)[sp].d([m5C])[sp].d(T)[sp].d(T)[sp].d(A)[sp].[moe](G)p.[moe]([m5C])p.[moe](T)[sp].[moe](A)}$$$$ (last 3' nucleoside missing)”, the 3 h FOB score turned out to be 0 score 0-7.

Substance “RNA1{[moe](T)[sp].[moe]([m5C])p.[moe](A)p.[moe](T)p.[moe]([m5C])[sp].d(A)[sp].d(T)[sp].d(T)[sp].d(T)[sp].d(T)[sp].d(G)[sp].d([m5C])[sp].d([m5C])[sp].d(A)[sp].d(T)[sp].[moe](T)p.[moe](T)p.[moe](A)[sp].[moe](T)}$$$$ (last 3' nucleoside missing)” returned a 3 h FOB score of 6 score 0-7.

“RNA1{[moe](T)[sp].[moe]([m5C])p.[moe](A)p.[moe]([m5C])p.[moe](T)[sp].d(G)[sp].d(T)[sp].d(G)[sp].d(A)[sp].d(A)[sp].d(T)[sp].d(A)[sp].d(T)[sp].d(G)[sp].d(T)[sp].[moe]([m5C])p.[moe]([m5C])p.[moe](T)[sp].[moe]([m5C])}$$$$ (last 3' nucleoside missing)” yielded a 3 h FOB score of 5 score 0-7.

For the substance “RNA1{[moe](T)[sp].[moe]([m5C])p.[moe](G)p.[moe]([m5C])p.[moe]([m5C])[sp].d(A)[sp].d(T)[sp].d(A)[sp].d(A)[sp].d(T)[sp].d(G)[sp].d(A)[sp].d([m5C])[sp].d(T)[sp].d(G)[sp].[moe]([m5C])p.[moe](T)p.[moe]([m5C])[sp].[moe](T)}$$$$ (last 3' nucleoside missing)”, the 3 h FOB score is 4.5 score 0-7.

In the case of “RNA1{[moe](T)[sp].[moe]([m5C])p.[moe](T)p.[moe](A)p.[moe](T)[sp].d(G)[sp].d(T)[sp].d(T)[sp].d(T)[sp].d(T)[sp].d([m5C])[sp].d([m5C])[sp].d(A)[sp].[moe](G)p.[moe](T)p.[moe](G)[sp].[moe]([m5C])}$$$$ (last 3' nucleoside missing)”, the 3 h FOB score is 0 score 0-7.

For the substance “RNA1{[moe](T)[sp].[moe]([m5C])p.[moe](T)p.[moe](A)p.[moe](T)[sp].d(G)[sp].d(T)[sp].d(T)[sp].d(T)[sp].d(T)[sp].d([m5C])[sp].d([m5C])[sp].d(A)[sp].d(G)[sp].d(T)[sp].[moe](G)p.[moe]([m5C])p.[moe]([m5C])[sp].[moe]([m5C])}$$$$ (last 3' nucleoside missing)”, the 3 h FOB score worked out at 0 score 0-7.

For the substance “RNA1{[moe](T)[sp].[moe]([m5C])p.[moe](T)p.[moe](A)p.[moe](T)p.d(G)[sp].d(T)[sp].d(T)[sp].d(T)[sp].d(T)[sp].d([m5C])[sp].d([m5C])[sp].d(A)[sp].d(G)[sp].[moe](T)[sp].[moe](G)p.[moe]([m5C])p.[moe]([m5C])}$$$$ (last 3' nucleoside missing)”, the 3 h FOB score was 0 score 0-7.

“RNA1{[moe](T)[sp].[moe]([m5C])p.[moe](T)p.[moe](A)p.[moe](T)p.d(G)[sp].d(T)[sp].d(T)[sp].d(T)[sp].d(T)[sp].d([m5C])[sp].d([m5C])[sp].d(A)[sp].d(G)[sp].[moe](T)p.[moe](G)p.[moe]([m5C])[sp].[moe]([m5C])}$$$$ (last 3' nucleoside missing)” had a 3 h FOB score of 0 score 0-7.

In turn, “RNA1{[moe](T)[sp].[moe]([m5C])p.[moe](T)p.[moe](A)p.d(T)[sp].d(G)[sp].d(T)[sp].d(T)[sp].d(T)[sp].d(T)[sp].d([m5C])[sp].d([m5C])[sp].d(A)[sp].d(G)[sp].[moe](T)p.[moe](G)p.[moe]([m5C])p.[moe]([m5C])[sp].[moe]([m5C])}$$$$ (last 3' nucleoside missing)” came in with a 3 h FOB score of 1 score 0-7.

As for “RNA1{[moe](T)[sp].[moe]([m5C])p.[moe](T)p.[moe](G)p.[moe](A)[sp].d(G)[sp].d(A)[sp].d(T)[sp].d(T)[sp].d(T)[sp].d(G)[sp].d(T)[sp].d(T)[sp].d(T)[sp].d(T)[sp].[moe](A)p.[moe](G)p.[moe]([m5C])[sp].[moe]([m5C])}$$$$ (last 3' nucleoside missing)”, the 3 h FOB score turned out to be 3 score 0-7.

In turn, “RNA1{[moe](T)[sp].[moe]([m5C])p.[moe](T)p.[moe](T)p.[moe](A)[sp].d(G)[sp].d(A)[sp].d(T)[sp].d(T)[sp].d(T)[sp].d(T)[sp].d(T)[sp].d(G)[sp].d(G)[sp].d(A)[sp].[moe]([m5C])p.[moe](G)p.[moe](G)[sp].[moe](G)}$$$$ (last 3' nucleoside missing)” showed a 3 h FOB score of 4.5 score 0-7.

Consider “RNA1{[moe](T)[sp].[moe]([m5C])p.[moe](T)p.[moe](T)p.[moe](T)[sp].d(T)[sp].d([m5C])[sp].d(T)[sp].d(T)[sp].d(T)[sp].d(G)[sp].d([m5C])[sp].d(A)[sp].d([m5C])[sp].d(A)[sp].[moe]([m5C])p.[moe](T)p.[moe](G)[sp].[moe](A)}$$$$ (last 3' nucleoside missing)”, for which the 3 h FOB score worked out at 3 score 0-7.

For “RNA1{[moe](T)[sp].[moe]([m5C])p.[moe](T)p.[moe]([m5C])p.[moe](A)[sp].d(G)[sp].d(G)[sp].d(T)[sp].d([m5C])[sp].d(T)[sp].d(A)[sp].d([m5C])[sp].d(T)[sp].d([m5C])[sp].d(T)[sp].[moe](A)p.[moe](T)p.[moe](G)[sp].[moe](T)}$$$$ (last 3' nucleoside missing)”, the 3 h FOB score was determined as 1.25 score 0-7.

In turn, “RNA1{[moe](T)[sp].[moe]([m5C])p.[moe](T)p.[moe]([m5C])p.[moe]([m5C])[sp].d(T)[sp].d(T)[sp].d(G)[sp].d(A)[sp].d(A)[sp].d(T)[sp].d(T)[sp].d(T)[sp].d([m5C])[sp].d(T)[sp].[moe](T)p.[moe](T)p.[moe]([m5C])[sp].[moe](A)}$$$$ (last 3' nucleoside missing)” had a 3 h FOB score of 0 score 0-7.

Turning to “RNA1{[moe](T)[sp].[moe]([m5C])p.[moe]([m5C])p.[moe](A)p.[moe](T)[sp].d(T)[sp].d(T)[sp].d(T)[sp].d([m5C])[sp].d(T)[sp].d(G)[sp].d(T)[sp].d(G)[sp].d([m5C])[sp].d(T)[sp].[moe](T)p.[moe](T)p.[moe](T)[sp].[moe]([m5C])}$$$$ (last 3' nucleoside missing)”, the 3 h FOB score came to 3.75 score 0-7.

“RNA1{[moe]([m5C])[sp].[moe](A)p.[moe](A)p.[moe](G)p.[moe]([m5C])[sp].d(A)[sp].d(G)[sp].d(T)[sp].d(T)[sp].d([m5C])[sp].d(T)[sp].d(T)[sp].d(T)[sp].d(T)[sp].d([m5C])[sp].[moe](T)p.[moe](T)p.[moe](T)[sp].[moe](G)}$$$$ (last 3' nucleoside missing)” displayed a 3 h FOB score of 2.25 score 0-7.

Regarding “RNA1{[moe]([m5C])[sp].[moe](A)p.[moe](A)p.[moe](T)p.[moe](T)[sp].d(G)[sp].d(T)[sp].d(T)[sp].d(T)[sp].d(T)[sp].d(T)[sp].d([m5C])[sp].d(T)[sp].d([m5C])[sp].d(T)[sp].[moe]([m5C])p.[moe](T)p.[moe]([m5C])[sp].[moe](T)}$$$$ (last 3' nucleoside missing)”, the 3 h FOB score came to 0 score 0-7.

Take “RNA1{[moe]([m5C])[sp].[moe](A)p.[moe](G)p.[moe](G)p.[moe](G)[sp].d(A)[sp].d(A)[sp].d(T)[sp].d(A)[sp].d(A)[sp].d(T)[sp].d(T)[sp].d(T)[sp].d(T)[sp].d(A)[sp].[moe]([m5C])p.[moe](T)p.[moe](T)[sp].[moe](T)}$$$$ (last 3' nucleoside missing)”: the 3 h FOB score was 0 score 0-7.

The values are drawn from the OligoGym collection.
